Reference: patent publication US8273769B2, “Phenoxy acetic acid derivatives” (Merck Serono SA, priority 2009, dated 2012)

Key:
CRTH2 = molecular target: T1, CRTH2 (Homo sapiens, UniProt Q9Y5Y4); assay: Radioligand binding Scintillation Proximity Assay ([3H]PGD2, hCRTH2-CHO cell membranes); design: host or cells: CHO cells; conditions: 1.5 nM [3H]PGD2, hCRTH2-CHO cell membranes, SPA
T1 sequence (Q9Y5Y4 1-395): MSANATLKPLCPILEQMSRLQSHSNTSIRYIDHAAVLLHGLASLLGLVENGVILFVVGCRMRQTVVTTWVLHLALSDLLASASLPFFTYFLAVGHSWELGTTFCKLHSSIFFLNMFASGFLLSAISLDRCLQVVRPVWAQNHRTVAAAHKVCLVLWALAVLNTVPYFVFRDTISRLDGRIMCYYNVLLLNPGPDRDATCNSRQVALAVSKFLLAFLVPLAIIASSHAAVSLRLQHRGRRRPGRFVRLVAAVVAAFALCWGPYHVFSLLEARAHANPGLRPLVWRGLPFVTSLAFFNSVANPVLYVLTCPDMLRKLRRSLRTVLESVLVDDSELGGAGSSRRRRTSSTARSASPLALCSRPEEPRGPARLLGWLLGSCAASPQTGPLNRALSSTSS
Procedure, shortened: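 SPA competition binding at room temperature, 90 min with agitation: 1.5 nM [3H]PGD2, 10-50 μg/ml hCRTH2-CHO membrane protein, WGA SPA beads, HEPES pH 7.4 with 10 mM MnCl2, 1% DMSO. Non-specific binding defined with 10 μM PGD2; scintillation counting.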

CC(C)CS(=O)(=O)c1ccc(F)c(C#Cc2cc(Cl)ccc2OCC(=O)O)c1 [Example 105, (4-chloro-2-{[2-fluoro-5-(isobutylsulfonyl)phenyl]ethynyl}phenoxy)acetic acid]
melting point: 141 to 143 °C | IC50 (CRTH2): 2 nM
